Each structure is given as a SMILES string. A value given as a limit tells only on which side of the number the result lay.

human 5HT2c receptor (VSV Isoform), sequence (P28335 33-458 I156V/N158S/I160V limits assumed): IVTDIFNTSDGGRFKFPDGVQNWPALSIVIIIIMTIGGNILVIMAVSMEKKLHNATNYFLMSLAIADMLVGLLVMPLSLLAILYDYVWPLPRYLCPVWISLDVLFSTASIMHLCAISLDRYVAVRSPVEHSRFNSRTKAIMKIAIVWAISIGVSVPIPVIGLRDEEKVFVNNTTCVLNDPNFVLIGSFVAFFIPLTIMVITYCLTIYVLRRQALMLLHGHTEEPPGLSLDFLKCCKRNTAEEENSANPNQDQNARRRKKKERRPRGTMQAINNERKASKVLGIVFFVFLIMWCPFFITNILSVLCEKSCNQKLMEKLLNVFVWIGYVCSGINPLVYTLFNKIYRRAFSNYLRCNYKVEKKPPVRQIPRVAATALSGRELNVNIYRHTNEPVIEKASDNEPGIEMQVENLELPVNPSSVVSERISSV

This experiment has as its target human 5HT2c receptor (VSV Isoform) (Homo sapiens, UniProt P28335, I156V/I160V/N158S). The experiment is described as follows: cell-based. The note with it: 5-HT2c EC50 (hVSV, μM).
By EC50 is commonly meant the concentration that produces a half-maximal response. Read a low EC50 as greater potency. For the compound `CC1c2cc(Cl)ccc2C2CNCC12` (single isomer, unassigned) [5, Enantiomer 1], the EC50 was under 1 µM.

`Cc1cc2c(cc1Cl)C1CNCC1C2C` (single isomer, unassigned) [23, Enantiomer 1] gave an EC50 of under 1 µM.

In turn, `CC1c2ccc(OCc3ccc(F)cc3)cc2C2CNCC12` (single isomer, unassigned) [46, Enantiomer 2] displayed a half-maximal effective concentration (EC50) of under 10 µM.

`CC1c2cc(Br)c(O)cc2C2CNCC12` (single isomer, unassigned) [31, Enantiomer 2] gave an EC50 of under 0.1 µM.

As to `Cc1cccc2c1C1CNCC1C2C` (centres unmarked) [Example 14, 4-Methyl-8-methyl-1,2,3,3a,8,8a-hexahydroindeno[1,2-c]pyrrole], the EC50 was under 1 µM.

For the compound `CC1c2ccc(O)cc2C2CNCC12` (single isomer, unassigned) [2, Enantiomer 1], the EC50 was under 1 µM.

Regarding `COc1cc2c(cc1Cl)C(C)C1CNCC21` (single isomer, unassigned) [3, Enantiomer 2], the EC50 was under 0.1 µM.

In turn, `Cc1cc2c(cc1Cl)C1CNCC1C2C` (single isomer, unassigned) [23, Enantiomer 2] returned an EC50 of under 0.1 µM.

`CC1c2c(ccc(Cl)c2F)C2CNCC12` (single isomer, unassigned) [42, Enantiomer 1] showed an EC50 of under 10 µM.

For the compound `CC1c2ccc(F)cc2C2CNCC12` (centres unmarked) [Example 18, 5-Fluoro-8-methyl-1,2,3,3a,8,8a-hexahydroindeno[1,2-c]pyrrole], the EC50 was under 1 µM.

Take `CC1c2c(ccc(Cl)c2Cl)C2CNCC12` (single isomer, unassigned) [27, Enantiomer 1]: the EC50 was under 1 µM.

As for `COc1cc2c(cc1Cl)C(=O)C1CNCC21` (centres unmarked) [Example 53, 5-Methoxy-6-chloro-2,3,3a,8a-tetrahydro-1H-2-aza-cyclopenta[a]inden-8-one], the EC50 was under 1 µM.

Compound `CC1c2cc(Cl)c(O)cc2C2CNCC12` (single isomer, unassigned) [4, Enantiomer 2] gave an EC50 of under 0.1 µM.

In turn, `CC1c2cc(Cl)c(OCc3ccc(F)cc3)cc2C2CNCC12` (centres unmarked) [Example 6, 5-(4-Fluorobenzyloxy)-6-chloro-8-methyl-1,2,3,3a,8,8a-hexahydroindeno[1,2-c]pyrrole] gave an EC50 of under 1 µM.

For `COc1cc2c(cc1Cl)C(O)C1CNCC21` (centres unmarked) [Example 55, 5-Methoxy-6-chloro-2,3,3a,8a-tetrahydro-1H-2-aza-cyclopenta[a]inden-8-ol], the EC50 is under 10 µM.

`Cc1cc2c(cc1Br)C(C)C1CNCC21` (centres unmarked) [Example 22, 5-Methyl-6-bromo-8-methyl-1,2,3,3a,8,8a-hexahydroindeno[1,2-c]pyrrole]: the concentration for a half-maximal effect (EC50) is under 1 µM.

Compound `COc1cc2c(cc1-c1cccs1)C(C)C1CNCC21` (single isomer, unassigned) [32, Enantiomer 2] yielded an EC50 of over 10 µM.

Take `CC1c2cc(Cl)c(O)cc2C2CNCC12` (centres unmarked) [Example 4, 5-Hydroxy-6-chloro-8-methyl-1,2,3,3a,8,8a-hexahydroindeno[1,2-c]pyrrole]: the EC50 is under 1 µM.

The compound `Cc1cc2c(cc1Br)C1CNCC1C2C` (centres unmarked) [Example 24, 5-Bromo-6-methyl-8-methyl-1,2,3,3a,8,8a-hexahydroindeno[1,2-c]pyrrole] registered an EC50 of under 1 µM.

Take `CC1c2cc(Cl)c(OCc3ccccc3)cc2C2CNCC12` (centres unmarked) [Example 7, 5-Benzyloxy-6-chloro-8-methyl-1,2,3,3a,8,8a-hexahydroindeno[1,2-c]pyrrole]: the EC50 was under 10 µM.

In the case of `CC1c2ccc(Cl)cc2C2CNCC12` (centres unmarked) [Example 20, 5-Chloro-8-methyl-1,2,3,3a,8,8a-hexahydroindeno[1,2-c]pyrrole], the EC50 is under 10 µM.

`CC1c2cc(Cl)c(Cl)cc2C2CNCC12` (centres unmarked) [Example 26, 5,6-Dichloro-8-methyl-1,2,3,3a,8,8a-hexahydroindeno[1,2-c]pyrrole] returned an EC50 of under 0.1 µM.

Compound `COc1c(Cl)cc2c(c1OC)C1CNCC1C2C` (single isomer, unassigned) [35, Enantiomer 1] came in with an EC50 of under 0.1 µM.

As for `CC1c2ccc(Cl)c(Cl)c2C2CNCC12` (single isomer, unassigned) [41, Enantiomer 1], the EC50 is under 1 µM.

`CC1c2ccc(Cl)c(Cl)c2C2CNCC12` (single isomer, unassigned) [41, Enantiomer 2] had an EC50 of under 10 µM.

Compound `c1ccc2c(c1)CC1CNCC21` (centres unmarked) [Example 10, 1,2,3,3a,8,8a-Hexahydroindeno[1,2-c]pyrrole] displayed an EC50 of under 10 µM.

Consider `COc1cc2c(cc1C#N)C(C)C1CNCC21` (single isomer, unassigned) [33, Enantiomer 2], for which the EC50 is under 1 µM.

`CC1c2cc(Cl)c(OCc3ccccc3F)cc2C2CNCC12` (centres unmarked) [Example 8, 5-(2-Fluorobenzyloxy)-6-chloro-8-methyl-1,2,3,3a,8,8a-hexahydroindeno[1,2-c]pyrrole] showed a concentration for a half-maximal effect (EC50) of under 10 µM.

As to `CC1c2cc(Cl)c(OCC3CC3)cc2C2CNCC12` (centres unmarked) [Example 39, 5-Cyclopropylmethoxy-6-chloro-8-methyl-1,2,3,3a,8,8a-hexahydroindeno[1,2-c]pyrrole], the EC50 was under 1 µM.

Turning to `COc1c(Cl)cc2c(c1Cl)C1CNCC1C2C` (centres unmarked) [Example 38, 4,6-Dichloro-5-Methoxy-8-methyl-1,2,3,3a,8,8a-hexahydroindeno[1,2-c]pyrrole], the EC50 is under 0.1 µM.

For `CCC1c2ccc(OC)cc2C2CNCC12` (centres unmarked) [Example 48, 5-Methoxy-8-ethyl-1,2,3,3a,8,8a-hexahydroindeno[1,2-c]pyrrole], the EC50 is over 10 µM.

`COc1cc2c(cc1Cl)CC1CNCC21` (single isomer, unassigned) [37, Enantiomer 1] returned an EC50 of under 0.1 µM.

In turn, `Clc1ccc2c(c1)CC1CNCC21` (centres unmarked) [Example 11, 6-Chloro-1,2,3,3a,8,8a-hexahydroindeno[1,2-c]pyrrole] came in with an EC50 of under 0.1 µM.

On to `CC1c2ccc(-c3c(F)cccc3F)cc2C2CNCC12` (single isomer, unassigned) [47, Enantiomer 2], for which the EC50 was over 10 µM.

`CC1c2cc(Cl)c(OCc3cccc(F)c3)cc2C2CNCC12` (centres unmarked) [Example 9, 5-(3-Fluorobenzyloxy)-6-chloro-8-methyl-1,2,3,3a,8,8a-hexahydroindeno[1,2-c]pyrrole] registered an EC50 of under 10 µM.

In turn, `CC1c2ccc(OC(F)(F)F)cc2C2CNCC12` (centres unmarked) [Example 40, 5-Trifluoromethoxy-8-methyl-1,2,3,3a,8,8a-hexahydroindeno[1,2-c]pyrrole] yielded an EC50 of over 10 µM.

`CC1c2ccc(O)cc2C2CNCC12` (centres unmarked) [Example 2, 5-Hydroxy-8-methyl-1,2,3,3a,8,8a-hexahydroindeno[1,2-c]pyrrole]: the EC50 was under 0.1 µM.

`CC1c2c(ccc(Cl)c2F)C2CNCC12` (single isomer, unassigned) [42, Enantiomer 2] displayed an EC50 of under 0.1 µM.

Compound `COc1cc2c(cc1OC)C1CNCC1C2C` (single isomer, unassigned) [36, Enantiomer 1] had an EC50 of over 10 µM.

In the case of `Cc1cccc2c1C(C)C1CNCC21` (centres unmarked) [Example 16, 7-Methyl-8-methyl-1,2,3,3a,8,8a-hexahydroindeno[1,2-c]pyrrole], the EC50 is under 1 µM.

Take `CC1c2cc(Cl)ccc2C2CNCC12` (centres unmarked) [Example 5, 6-Chloro-8-methyl-1,2,3,3a,8,8a-hexahydroindeno[1,2-c]pyrrole]: the EC50 is under 0.1 µM.
